From PubChem BioAssay AID1919002 (Molecular Pharmacology Branch, DTP, NCI, 2023)
Several values for one entry are separate records, joined by “and”; a condition that tells them apart may be missing. Equal values may be shown once.

Tested on: 743489-274-T-PDC complex spheroid growth
Test: Anticancer human tumor 743489-274-T-PDC patient-derived renal cell carcinoma cell line growth inhibition [AhR]
Settings: for viability, T/C: stronger effect = lower value
In short: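 Complex tumor spheroids co-cultured with HUVEC and human MSC stroma; AhR antagonists tested in combination with standard-of-care and investigational agents. Top concentration at or near clinical Cmax (else 10 microM), half-log dilutions; growth expressed as percent test/control.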

[1] = curve of first compound, second compound 0.1 µM
[2] = curve of first compound, second compound 0.316 µM
[3] = curve of first compound, second compound 1 µM
[4] = curve of first compound, second compound 3.16 µM
[5] = curve of first compound, second compound 10 µM
[6] = second compound 0.1 µM, first compound 0.0316 µM
[7] = second compound 0.1 µM, first compound 0.1 µM
[8] = second compound 0.1 µM, first compound 0.316 µM
[9] = second compound 0.1 µM, first compound 1 µM
[10] = second compound 0.1 µM, first compound 3.16 µM
[11] = second compound 0.1 µM, first compound 10 µM
[12] = second compound 0.316 µM, first compound 0.0316 µM
[13] = second compound 0.316 µM, first compound 0.1 µM
[14] = second compound 0.316 µM, first compound 0.316 µM
[15] = second compound 0.316 µM, first compound 1 µM
[16] = second compound 0.316 µM, first compound 3.16 µM
[17] = second compound 0.316 µM, first compound 10 µM
[18] = second compound 1 µM, first compound 0.0316 µM
[19] = second compound 1 µM, first compound 0.1 µM
[20] = second compound 1 µM, first compound 0.316 µM
[21] = second compound 1 µM, first compound 1 µM
[22] = second compound 1 µM, first compound 3.16 µM
[23] = second compound 1 µM, first compound 10 µM
[24] = second compound 3.16 µM, first compound 0.0316 µM
[25] = second compound 3.16 µM, first compound 0.1 µM
[26] = second compound 3.16 µM, first compound 0.316 µM
[27] = second compound 3.16 µM, first compound 1 µM
[28] = second compound 3.16 µM, first compound 3.16 µM
[29] = second compound 3.16 µM, first compound 10 µM
[30] = second compound 10 µM, first compound 0.0316 µM
[31] = second compound 10 µM, first compound 0.1 µM
[32] = second compound 10 µM, first compound 0.316 µM
[33] = second compound 10 µM, first compound 1 µM
[34] = second compound 10 µM, first compound 3.16 µM
[35] = second compound 10 µM, first compound 10 µM
[36] = second compound 0.1 µM, first compound 0.00316 µM
[37] = second compound 0.1 µM, first compound 0.01 µM
[38] = second compound 0.316 µM, first compound 0.00316 µM
[39] = second compound 0.316 µM, first compound 0.01 µM
[40] = second compound 1 µM, first compound 0.00316 µM
[41] = second compound 1 µM, first compound 0.01 µM
[42] = second compound 3.16 µM, first compound 0.00316 µM
[43] = second compound 3.16 µM, first compound 0.01 µM
[44] = second compound 10 µM, first compound 0.00316 µM
[45] = second compound 10 µM, first compound 0.01 µM
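Further: spheroids exposed to agents for 7 days before readout.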
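Wherever viability, T/C is given: 100% = DMSO vehicle control wells.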

SMILES	IC50 [1] [µM]	IC50 [2] [µM]	IC50 [3] [µM]	IC50 [4] [µM]	IC50 [5] [µM]	viability, T/C [6] [%]	viability, T/C [7] [%]	viability, T/C [8] [%]	viability, T/C [9] [%]	viability, T/C [12] [%]	viability, T/C [13] [%]	viability, T/C [14] [%]	viability, T/C [15] [%]	viability, T/C [18] [%]	viability, T/C [19] [%]	viability, T/C [20] [%]	viability, T/C [24] [%]	viability, T/C [25] [%]	viability, T/C [30] [%]	viability, T/C [31] [%]	other results
Cn1ncnc1C1c2n[nH]c(=O)c3cc(F)cc(c23)NC1c1ccc(F)cc1 (centres undefined) + Cc1ccccc1N=Nc1ccc(NC(=O)c2ccnn2C)c(C)c1	> 0.1	> 0.1	> 0.1	> 0.1	> 0.1	103	90.2	–	–	97.8	88.8	–	–	106	92.5	–	94.1	102	89.4	103	viability, T/C (second compound 0.1 µM, first compound 0.000316 µM): 97.3%; viability, T/C (second compound 0.1 µM, first compound 0.001 µM): 106%; viability, T/C [36]: 101%; viability, T/C [37]: 101%; viability, T/C (second compound 0.316 µM, first compound 0.000316 µM): 98.2%; viability, T/C (second compound 0.316 µM, first compound 0.001 µM): 107%; viability, T/C [38]: 89%; viability, T/C [39]: 98.9%; viability, T/C (second compound 1 µM, first compound 0.000316 µM): 105%; viability, T/C (second compound 1 µM, first compound 0.001 µM): 92.1%; viability, T/C [40]: 100%; viability, T/C [41]: 96.7%; viability, T/C (second compound 3.16 µM, first compound 0.000316 µM): 93.3%; viability, T/C (second compound 3.16 µM, first compound 0.001 µM): 106%; viability, T/C [42]: 97.7%; viability, T/C [43]: 91%; viability, T/C (second compound 10 µM, first compound 0.000316 µM): 99.8%; viability, T/C (second compound 10 µM, first compound 0.001 µM): 101%; viability, T/C [44]: 103%; viability, T/C [45]: 92.2%
CC(C)CC(NC(=O)C(Cc1ccccc1)NC(=O)c1cnccn1)B(O)O (centres undefined)	–	–	–	–	–	–	–	–	–	–	–	–	–	–	–	–	–	–	–	–	viability, T/C (compound 0.000949 µM): 99.1% and 101% and 98%; viability, T/C (compound 0.003 µM): 95.6% and 109% and 101%; viability, T/C (compound 0.00949 µM): 106% and 110% and 101%; viability, T/C (compound 0.03 µM): 82.7% and 39.1% and 17.3%; viability, T/C (compound 0.0949 µM): 12.9% and 18.7% and 11.8%; viability, T/C (compound 0.3 µM): 11.7% and 8.88% and 4.65%; IC50 (curve of compound): 0.0513 µM and 0.0249 µM and 0.019 µM
NS(=O)(=O)OCC1CC(n2ccc3c(NC4CCc5ccccc54)ncnc32)CC1O (centres undefined)	–	–	–	–	–	–	–	–	–	–	–	–	–	–	–	–	–	–	–	–	viability, T/C (compound 0.0316 µM): 102% and 104% and 93.9%; viability, T/C (compound 0.1 µM): 105% and 121% and 96.2%; viability, T/C (compound 0.316 µM): 114% and 108% and 103%; viability, T/C (compound 1 µM): 132% and 136% and 138%; viability, T/C (compound 3.16 µM): 137% and 132% and 156%; viability, T/C (compound 10 µM): 150% and 128% and 161%; IC50 (curve of compound): > 10 µM

Further lines, with some results ahead:

IC50 [1] [µM]	IC50 [2] [µM]	IC50 [3] [µM]	IC50 [4] [µM]	IC50 [5] [µM]	SMILES	viability, T/C [6] [%]	viability, T/C [7] [%]	viability, T/C [8] [%]	viability, T/C [9] [%]	viability, T/C [12] [%]	viability, T/C [13] [%]	viability, T/C [14] [%]	viability, T/C [15] [%]	viability, T/C [18] [%]	viability, T/C [19] [%]	viability, T/C [20] [%]	viability, T/C [24] [%]	viability, T/C [25] [%]	viability, T/C [30] [%]	viability, T/C [31] [%]	other results
> 10	> 10	> 10	> 10	> 10	COc1cc(C2c3cc4c(cc3C(OC3OC5COC(C)OC5C(O)C3O)C3COC(=O)C23)OCO4)cc(OC)c1O (centres undefined) + Cc1cncc(-c2nc(NCCc3c[nH]c4ccccc34)c3ncn(C(C)C)c3n2)c1	97.7	88.2	88	96.8	94.1	82.6	78.2	80	90.2	87.6	80.5	95.3	87.9	131	117	viability, T/C [10]: 82.3%; viability, T/C [11]: 74.6%; viability, T/C [16]: 75.2%; viability, T/C [17]: 78.5%; viability, T/C [21]: 78.1%; viability, T/C [22]: 80.4%; viability, T/C [23]: 80.8%; viability, T/C [26]: 91.4%; viability, T/C [27]: 92.6%; viability, T/C [28]: 80.1%; viability, T/C [29]: 74.8%; viability, T/C [32]: 95.6%; viability, T/C [33]: 110%; viability, T/C [34]: 102%; viability, T/C [35]: 100%
2.61	2.57	2.34	2.26	1.72	COc1ccc([C@@H](O)c2cc(-c3ncnc4cc(N5CCOCC5)ccc34)c(F)cc2Cl)nn1 + Cc1ccccc1N=Nc1ccc(NC(=O)c2ccnn2C)c(C)c1	99.7	87.6	95.7	80.1	96.2	89.1	92.4	77.2	101	87	86.5	84.5	81.5	86.2	90.2	viability, T/C [10]: 44.1%; viability, T/C [11]: 31.9%; viability, T/C [16]: 44.1%; viability, T/C [17]: 22.4%; viability, T/C [21]: 68.9%; viability, T/C [22]: 42.2%; viability, T/C [23]: 22.8%; viability, T/C [26]: 87.5%; viability, T/C [27]: 77.7%; viability, T/C [28]: 38.4%; viability, T/C [29]: 19.1%; viability, T/C [32]: 81.5%; viability, T/C [33]: 62.2%; viability, T/C [34]: 36.1%; viability, T/C [35]: 18.8%
> 10	> 10	> 10	> 10	> 10	CC(C)c1c(-c2ccccc2)nc2c(C#N)c[nH]n2c1=O + Cc1cncc(-c2nc(NCCc3c[nH]c4ccccc34)c3ncn(C(C)C)c3n2)c1	101	126	104	103	112	104	101	107	107	103	111	114	119	126	141	viability, T/C [10]: 96.2%; viability, T/C [11]: 104%; viability, T/C [16]: 100%; viability, T/C [17]: 96.7%; viability, T/C [21]: 96.7%; viability, T/C [22]: 105%; viability, T/C [23]: 102%; viability, T/C [26]: 121%; viability, T/C [27]: 119%; viability, T/C [28]: 110%; viability, T/C [29]: 115%; viability, T/C [32]: 133%; viability, T/C [33]: 125%; viability, T/C [34]: 109%; viability, T/C [35]: 134%
> 1	> 1	> 1	> 1	> 1	CC1COCCN1c1cc(-c2ccnn2C)c2ccnc(-c3ccn[nH]3)c2n1 (centres undefined) + Cc1cncc(-c2nc(NCCc3c[nH]c4ccccc34)c3ncn(C(C)C)c3n2)c1	113	105	100	84.5	109	105	95.4	80.3	116	99.8	102	122	113	143	142	viability, T/C [36]: 106%; viability, T/C [37]: 106%; viability, T/C [38]: 99.7%; viability, T/C [39]: 107%; viability, T/C [40]: 108%; viability, T/C [41]: 104%; viability, T/C [21]: 85%; viability, T/C [42]: 120%; viability, T/C [43]: 126%; viability, T/C [26]: 99.4%; viability, T/C [27]: 89.1%; viability, T/C [44]: 116%; viability, T/C [45]: 148%; viability, T/C [32]: 124%; viability, T/C [33]: 109%
